Measurements taken from US20180186877A1 (NATIONAL CEREBRAL AND CARDIOVASCULAR CENTER, priority 2013, published 2018).

Assays:
[1] = biological target: binding of LOX-1 to oxidized LDL (Homo sapiens, UniProt P78380); conditions: Nishizuka et al. 2011; cited from earlier work
[2] = tested on: human blood plasma; assay: Recalcification blood coagulation test with procyanidin; format: biochemical
Protocol: An anti-blood coagulation effect yielded by procyanidin was confirmed by the recalcification blood coagulation test. […] Thereafter, as in Example 8, human blood plasma and Ca2+ were added to the test tube, and the coagulation time was measured. Then, the coagulation time of the test tube to which no procyanidin was added, was also measured in a similar manner. Furthermore, the coagulation time of the test tube to which no recombinant LOX-1 protein was added, was also measured in a similar manner.

procyanidin
inhibition of binding of LOX-1 to oxidized LDL [1]: inhibits | coagulation time ([2]; 1 μg/mL procyanidin added to blood plasma alone, no LOX-1): no influence | coagulation time ([2]; 1 μg/mL procyanidin with 1 μg/mL LOX-1 and blood plasma, significance less than 5%): reduction of the coagulation time was suppressed
